Patent US11780880B2, “High-activity memory-improving derivative peptide and use thereof” (Jilin Agricultural University, priority 2021, dated 2023)
Peptide text beside a SMILES is read from it.

How the values were obtained:
[1] = ABTS free radical scavenging assay; assay type: physicochemical; settings: concentration of 100 μM
Protocol: (1) ABTS free radical scavenging assay: Equal volumes of a 7 mmol/L ABTS aqueous solution and a 2.49 mmol/L potassium persulfate aqueous solution were mixed and left to stand in the dark for 12 h to obtain an ABTS free radical stock solution, which was stored at 4° C. When in use, the stock solution was diluted with 5 mmol/L PBS until the absorbance of the solution was 0.700±0.002 at 734 nm, and an ABTS free radical working solution was prepared. Separately, 10 μL of each of the aqueous solutions of derivative peptides with a concentration of 100 μM was added to a 96-well plate, while glutathione (GSH) of the same concentration was used as a control; these solutions reacted with 190 μL of ABTS free radical working solution accurately for 6 min, and absorbance values (A1) were measured at a wavelength of 734 nm using a microplate reader. The calculation formula for scavenging rate is as follows: […]
where A0 is the absorbance value that replaces the derivative peptide solution with distilled water;
A1 is the absorbance value of the solution adding a derivative peptide or GSH; and
A2 is the absorbance value of the solution using 5 mmol/L PBS instead of the ABTS free radical working solution.

[2] = Oxygen radical antioxidant capacity (ORAC) assay; assay type: physicochemical; settings: 100 μM aqueous solutions
Protocol: (2) ORAC assay: (1) On a 96-well black plate, 25 μL each of PBS, Trolox standard solutions (12.5, 25, 50, and 100 μM) and aqueous solutions of five derivative peptides (100 μM) was added. The 96-well plate was placed and shaken in a microplate reader preheated for 30 min for 5 s, and incubated at 37° C. for 10 min. To each well, 150 μL each of FL working solution was added using a multi-channel pipette, and the plate was shaken for 5 s and incubated at 37° C. for 20 min. To each well, 25 μL each of AAPH was quickly added using the multi-channel pipette, and the plate was shaken for 5 s, followed by reading. The fluorescence intensity was continuously measured at an excitation wavelength of (485±20) nm and an emission wavelength of (530±20) nm. The whole system was held at 37° C., and the fluorescence intensity was measured every 2 min. Before each measurement, the well plate was shaken at a medium speed for 10 s, and the oscillation amplitude was 4 mm. The measurement was performed until the fluorescence intensity reached 5% of the initial fluorescence intensity (60 cycles were set in this assay). The relative fluorescence intensity is calculated by the area under the fluorescence decay curve (AUC) as follows: AUC=0.5×[2×(f0+f1 . . . +fn-1+fn)−f0−fn]×Δt
(1) In the formula, fn is the relative fluorescence intensity at the n-th measurement point; and Δt is the interval between adjacent time points, namely 2 min.
(2) The measurement results are expressed as ORAC values. The ORAC values of unknown samples are expressed in μmol TE/g. ORAC value=[(AUCSample−AUCBlank)/(AUCTrolox−AUCBlank)]×CTrolox/CSample.
Herein, AUCSample is the result of each of the aqueous solutions of five derivative peptides; AUCBlank is the result after adding 25 μL of PBS; AUCTrolox is the result after adding Trolox standard solution (100 μM); CTrolox is the molar concentration of Trolox, namely, 100 μM;
CSample is the molar concentration of each derivative peptide, calculated from the Trolox standard curve, where the Trolox standard curve is y=0.0756x+41.989, R^2=0.9931, the abscissa is the molar concentration of Trolox (12.5, 25, 50, or 100 μM), and the ordinate is AUCTrolox.

[3] = Thermal stability testing (RP-HPLC peak area); assay type: physicochemical; settings: 100 μM, pH 7.0, 20-100° C. water bath for 2 h
Protocol: Thermal Stability Testing (see FIG. 4A): • Step 1, the solid powder of derivative peptide WYSGK (SEQ ID NO:4) was dissolved in distilled water to prepare a 100 μM solution, the pH value was adjusted to 7.0, and the resulting solution was stored at 4° C. for later use; • Step 2, the derivative peptide WYSGK (SEQ ID NO: 4) solution in step 1 was divided into five tubes (1 mL/tube), and each tube was placed in a water bath at 20, 40, 60, 80, and 100° C. for 2 h; • Step 3, the blank group (the derivative peptide WYSGK (SEQ ID NO: 4) solution in step 1 without water bath treatment) and the derivative peptide WYSGK (SEQ ID NO:4) solution at each temperature were filtered through a 0.22 μm filter membrane; • Step 4, RP-HPLC was performed under the following conditions: detection wavelength: 220 nm; column temperature: 25° C.; mobile phase A: acetonitrile+0.1% (v/v) TFA; mobile phase B: acetonitrile+0.1% (v/v) TFA. Elution conditions were programmed as follows: 0-25 min, 10%-35% B (the value could be input in the liquid phase equipment); flow rate 1.0 mL/min; and • Step 5, the peak area in the liquid chromatogram was calculated to determine whether the derivative peptide WYSGK (SEQ ID NO:4) was degraded at different temperatures (refer to Liu Xintong's method, Sci. Technol. Food Ind., Vol. 41, No. 19, 2020).

[4] = Acid-base stability testing (RP-HPLC peak area); assay type: physicochemical; settings: 100 μM, pH 2, 4, 6, and 8, 37° C. for 2 h
Protocol: Acid-base Stability Testing (see FIG. 4B): • Step 1, the solid powder of derivative peptide WYSGK (SEQ ID NO: 4) was dissolved in distilled water to prepare a 100 μM solution, which was used as a blank group and stored at 4° C. for later use; • Step 2, the solid powder of derivative peptide WYSGK (SEQ ID NO: 4) was diluted with aqueous solutions with pH 2, 4, 6, and 8 to a concentration of 100 μmol/L, respectively, and the resulting solutions were incubated in a water bath at 37° C. for 2 h; • Step 3, the blank group and WYSGK (SEQ ID NO: 4) sample solutions at different pH were filtered through a 0.22 μm filter membrane; • Step 4, RP-HPLC was performed under the following conditions: detection wavelength: 220 nm; column temperature: 25° C.; mobile phase A: 100% acetonitrile+0.1% TFA; mobile phase B: 100% acetonitrile+0.1% TFA. Elution conditions were programmed as follows: 0-25 min, 10%-35% B (gradient elution); flow rate 1.0 mL/min; and • Step 5, the peak area in the liquid chromatogram was calculated to determine whether the derivative peptide WYSGK (SEQ ID NO: 4) was degraded at different pH (refer to Liu Xintong's method, Sci. Technol. Food Ind., Vol. 41, No. 19, 2020).

[5] = Simulated gastrointestinal digestion stability testing; assay type: in vitro ADME; settings: pepsin up to 2 h then trypsin up to 2 h, 37° C.
Excerpt: […]

[6] = system: scopolamine-induced memory impairment model mice; experiment: Morris water maze (place navigation and probe trial); assay type: in vivo, Male C57BL/6N mice
Protocol: In vivo studies were performed in accordance with the Guide for the Care and Use of Laboratory Animals published by the […]. Male C57BL/6N mice weighing 25-30 g were purchased from Liaoning Changsheng Biotechnology Co., Ltd. (Benxi, China). Mice were housed at a stable temperature (22±1° C.) under a 12 h/12 h light/dark cycle. The mice were given access to standard diet and water ad libitum. […]
A circular pool for Morris water maze (1,200 mm in diameter) was filled with warm water at 20±2° C., while a platform (65 mm diameter) was hidden in the Southwest (SW) quadrant 1 cm below the water surface. A mouse was gently placed in the Northeast (NE) quadrant facing the pool wall, the swimming trajectory of the mouse was recorded by the image acquisition system, and the time was measured for 120 s. The time it took to find the platform in the SW quadrant within 120 s was recorded as the latency, while the mouse that reached the platform was allowed to sit on the platform for 10 s and then returned to the holding cage. […] Subsequently, the time from the mice being placed in the water to finding the platform was analyzed and calculated according to the data acquisition system (see FIG. 2A). […]
After the place navigation was completed, the platform hidden in the water was taken out. A mouse was gently placed in the Northeast (NE) quadrant facing the pool wall, the swimming trajectory of the mouse was recorded by the image acquisition system, and the time was measured for 90 s. According to the data acquisition system, the time spent in the target quadrant (see FIG. 2B) and the frequency of original platform crossing (see FIG. 2C) within 90 s were analyzed and calculated on the mouse. […]

Row | Molecule | ABTS free radical scavenging rate [1] | ORAC value [2] | also measured
1 | N[C@@H](CCC(=O)N[C@@H](CS)C(=O)NCC(=O)O)C(=O)O [GSH, reduced glutathione, reference compound] | 31.39% | 995.58 μmol TE/g | 
2 | NCCCC[C@H](NC(=O)CNC(=O)[C@H](CO)NC(=O)[C@H](Cc1ccc(O)cc1)NC(=O)[C@@H](N)Cc1c[nH]c2ccccc12)C(=O)O [WYSGK, Trp-Tyr-Ser-Gly-Lys] (H-WYSGK-OH; N-terminus and C-terminus assumed) |  |  | degradation at different temperatures (thermal stability) [3]: hardly degraded; degradation at different pH (acid-base stability) [4]: hardly degraded; retention rate of peptide content [5]: at least 93.45%
3 | Trp-Tyr-Glu-Gly-Lys (WYEGK; derivative peptide) | 54.48% | 5,422.29 μmol TE/g | 
4 | Trp-Tyr-Lys-Gly-Lys (WYKGK; derivative peptide) | 40.31% | 3,681.50 μmol TE/g | 
5 | Trp-Tyr-Phe-Gly-Lys (WYFGK; derivative peptide) | 36.56% | 3,762.05 μmol TE/g | 
6 | WYPGK: pine nut-derived antioxidant peptide, template for the derivative peptides (pine nut antioxidant peptide) |  |  | escape latency compared with the model group ([6]; place navigation, 5-day training, FIG. 2A): shorter escape latency; time spent in target quadrant compared with the model group ([6]; probe trial, within 90 s, FIG. 2B): significant decreases; frequency of original platform crossing compared with the model group ([6]; probe trial, within 90 s, FIG. 2C): significant decreases
